The values that follow come from patent US7317007B2, “Benzothiazole derivatives with activity as adenosine receptor ligands” (Hoffmann-La Roche Inc., priority 2000, dated 2008).

The structures appear in SMILES notation. Where a name gives a salt, the structure may show the parent alone.

For the assay, the target named is T1, human adenosine A2A receptor (Homo sapiens, UniProt P29274).
T1 construct: expressed in transfected cells; host or cells: CHO cells, Semliki Forest virus expression system; washed membrane pellet used
T1 sequence (P29274 whole entry): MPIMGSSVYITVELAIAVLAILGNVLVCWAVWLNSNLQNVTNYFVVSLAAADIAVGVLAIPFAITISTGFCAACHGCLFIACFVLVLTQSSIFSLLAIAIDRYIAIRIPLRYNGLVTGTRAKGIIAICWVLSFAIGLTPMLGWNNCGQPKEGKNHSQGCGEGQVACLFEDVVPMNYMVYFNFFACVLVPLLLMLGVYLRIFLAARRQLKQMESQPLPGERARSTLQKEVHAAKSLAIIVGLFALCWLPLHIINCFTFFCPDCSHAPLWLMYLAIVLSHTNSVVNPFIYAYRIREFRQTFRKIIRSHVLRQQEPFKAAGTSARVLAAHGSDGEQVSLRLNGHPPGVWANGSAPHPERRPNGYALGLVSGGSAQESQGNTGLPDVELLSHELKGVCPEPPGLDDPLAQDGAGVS
Description: [3H]-SCH-58261 binding assay at the human adenosine A2A receptor. Particulars: read-out: pKi value (converted). As to the method: Human Adenosine A2A Receptor
The human adenosine A2A receptor was recombinantly expressed in chinese hamster ovary (CHO) cells using the semliki forest virus expression system. Cells were harvested, washed twice by centrifugation, homogenised and again washed by centrifugation. The final washed membrane pellet was suspended in a Tris (50 mM) buffer containing 120 mM NaCl, 5 mM KCl, 2 mM CaCl2 and 10 mM MgCl2 (pH 7.4) (buffer A). The [^3H]-SCH-58261 (Dionisotti et al., 1997, Br J Pharmacol 121, 353; 1 nM) binding assay was carried out in 96-well plates in the presence of 2.5 μg of membrane protein, 0.5 mg of Ysi-poly-1-lysine SPA beads and 0.1 U adenosine deaminase in a final volume of 200 μl of buffer A. Non-specific binding was defined using xanthine amine congener (XAC; 2 μM). Compounds were tested at 10 concentrations from 10 μM-0.3 nM. All assays were conducted in duplicate and repeated at least two times. Assay plates were incubated for 1 hour at room temperature before centrifugation and then bound ligand determined using a Packard Topcount scintillation counter. IC50 values were calculated using a non-linear curve fitting program and Ki values calculated using the Cheng-Prussoff equation.
As to `COc1ccc(-c2ccccc2)c2sc(NC(=O)c3ccc(C)s3)nc12` [Example 3, 5-Methyl-thiophene-2-carboxylic acid (4-methoxy-7-phenyl-benzothiazol-2-yl)-amide], the Ki is 1.58 nM.

Regarding `COc1ccc(-c2ccccc2)c2sc(NC(=O)c3ccc(C)o3)nc12` [Example 10, 5-Methyl-furan-2-carboxylic acid (4-methoxy-7-phenyl-benzothiazol-2-yl)-amide], the Ki was 1 nM. As for `COc1ccc(-c2ccccc2)c2sc(NC(=O)c3ccc(CO)cc3)nc12` [Example 17, 4-Hydroxymethyl-N-(4-methoxy-7-phenyl-benzothiazol-2-yl)-benzamide], the figure is 0.501 nM.

Take `COc1ccc(-c2ccccc2)c2sc(NC(=O)c3ccc(F)cc3)nc12` [Example 23, 4-Fluoro-N-(4-methoxy-7-phenyl-benzothiazol-2-yl)-benzamide]: the Ki is 1.26 nM.

Regarding `COc1ccc(-c2ccccc2)c2sc(NC(=O)c3ccncc3)nc12` [Example 36, N-(4-Methoxy-7-phenyl-benzothiazol-2-yl)-isonicotinamide], the Ki is 0.794 nM. Consider `COc1ccc(-c2ccnc(C)c2)c2sc(NC(=O)c3ccc(C)s3)nc12` [Example 61, 5-Methyl-thiophene-2-carboxylic acid [4-methoxy-7-(2-methyl-pyridin-4-yl)-benzothiazol-2-yl]-amide], for which the Ki was 1.26 nM. As for `COc1ccc(-c2cccc(N)c2)c2sc(NC(=O)c3ccc(C)s3)nc12` [Example 62, 5-Methyl-thiophene-2-carboxylic acid [7-(3-amino-phenyl)-4-methoxy-benzothiazol-2-yl]-amide], the figure is 0.794 nM; as for `COCCNCc1ccc(C(=O)Nc2nc3c(OC)ccc(-c4ccccc4)c3s2)cc1` [Example 91, 4-[(2-Methoxy-ethylamino)-methyl]-N-(4-methoxy-7-phenyl-benzothiazol-2-yl)-benzamide hydrochloride salt (1:1)], 1.58 nM. Consider `COc1ccc(-c2ccccc2)c2sc(NC(=O)c3ccc(CNCCO)cc3)nc12` [Example 92, 4-[(2-Hydroxy-ethylamino)-methyl]-N-(4-methoxy-7-phenyl-benzothiazol-2-yl)-benzamide hydrochloride salt (1:1)], for which the Ki is 1.26 nM. On to `COc1ccc(-c2ccccc2)c2sc(NC(=O)c3ccc(CNCc4ccncc4)cc3)nc12` [Example 96, N-(4-Methoxy-7-phenyl-benzothiazol-2-yl)-4-{[(pyridin-4-ylmethyl)-amino]-methyl}-benzamide hydrochloride salt (1:2)], for which the Ki is 1.58 nM.

`COc1ccc(-c2ccccc2)c2sc(NC(=O)c3ccc(Cn4ccnc4)cc3)nc12` [Example 100, 4-Imidazol-1-ylmethyl-N-(4-methoxy-7-phenyl-benzothiazol-2-yl)-benzamide hydrochloride salt (1:1)]: the Ki is 0.501 nM. To `COc1ccc(-c2ccccc2)c2sc(NC(=O)c3ccc(CNCc4cccnc4)cc3)nc12` [Example 107, N-(4-Methoxy-7-phenyl-benzothiazol-2-yl)-4-{[(pyridin-3-ylmethyl)-amino]-methyl}-benzamide hydrochloride salt (1:2)] belongs 1.58 nM; to `COc1ccc(-c2ccccc2)c2sc(NC(=O)c3ccc(CN4CCC(O)CC4)cc3)nc12` [Example 108, 4-(4-Hydroxy-piperidin-1-ylmethyl)-N-(4-methoxy-7-phenyl-benzothiazol-2-yl)-benzamide hydrochloride salt (1:1)], 1.26 nM; to `COc1ccc(-c2ccccc2)c2sc(NC(=O)c3ccc(CN)cc3)nc12` [Example 121, 4-Aminomethyl-N-(4-methoxy-7-phenyl-benzothiazol-2-yl)-benzamide hydrochloride salt (1:1)], 1 nM. Consider `COc1ccc(-c2ccccc2)c2sc(NC(=O)c3ccc(CN4CC[C@H](N(C)C)C4)cc3)nc12` [Example 125, 4-(3 (S)-Dimethylamino-pyrrolidin-1-ylmethyl)-N-(4-methoxy-7-phenyl-benzothiazol-2-yl)-benzamide hydrochlorde salt (1:2)], for which the Ki is 1 nM. On to `COc1ccc(-c2ccccc2)c2sc(NC(=O)N3CCOCC3)nc12` [Example 157, Morpholine-4-carboxylic acid (4-methoxy-7-phenyl-benzothiazol-2-yl)-amide], for which the Ki was 1.26 nM. For the molecule `COC(=O)Nc1nc2c(OC)ccc(-c3csc(-c4ccc(C)nc4)n3)c2s1` [Example 201, {4-Methoxy-7-[2-(6-methyl-pyridin-3-yl)-thiazol-4-yl]-benzothiazol-2-yl}-carbamic acid methyl ester], the Ki was 2.51 nM. As for `COCCN(C)Cc1ccc(C(=O)Nc2nc3c(OC)ccc(-c4csc(-c5ccc(C)nc5)n4)c3s2)cc1` [Example 238, 4-{[(2-Methoxy-ethyl)-methyl-amino]-methyl}-N-{4-methoxy-7-[2-(6-methyl-pyridin-3-yl)-thiazol-4-yl]-benzothiazol-2-yl}-benzamide], the figure is 2 nM. Take `COc1ccc(-c2csc(-c3ccc(C)nc3)n2)c2sc(NC(=O)N3CCOCC3)nc12` [Example 258]: the Ki was 1.26 nM. To `COc1ccc(N2CCOCC2)c2sc(NC(=O)c3ccc(C(F)(F)F)cc3)nc12` [Example 271, N-(4-Methoxy-7-morpholin-4-yl-benzothiazol-2-yl)-4-trifluoromethyl-benzamide] belongs 2.51 nM. To `COc1ccc(N2CCOCC2)c2sc(NC(=O)c3ccc(F)cc3)nc12` [Example 275, 4-Fluoro-N-(4-methoxy-7-morpholin-4-yl-benzothiazol-2-yl)-benzamide] belongs 2 nM. As for `COc1ccc(N2CCOCC2)c2sc(NC(=O)c3ccccc3)nc12` [Example 277, N-(4-Methoxy-7-morpholin-4-yl-benzothiazol-2-yl)-benzamide], the figure is 2 nM; as for `CCN(CCOC)Cc1cc(C(=O)Nc2nc3c(OC)ccc(N4CCOCC4)c3s2)ccc1Cl` [Example 278, 4-Chloro-3-{[ethyl-(2-methoxy-ethyl)-amino]-methyl}-N-(4-methoxy-7-morpholin-4-yl-benzothiazol-2-yl)-benzamide], 3.16 nM; as for `CNCc1cccc(C(=O)Nc2nc3c(OC)ccc(N4CCOCC4)c3s2)c1` [Example 279, N-(4-Methoxy-7-morpholin-4-yl-benzothiazol-2-yl)-3-methylaminomethyl-benzamide], 1.58 nM. As to `CNCc1cc(C(=O)Nc2nc3c(OC)ccc(N4CCOCC4)c3s2)ccc1Cl` [Example 280, 4-Chloro-N-(4-methoxy-7-morpholin-4-yl-benzothiazol-2-yl)-3-methylaminomethyl-benzamide], the Ki is 2 nM.

On to `COCCNCc1cc(C(=O)Nc2nc3c(OC)ccc(N4CCOCC4)c3s2)ccc1Cl` [Example 282, 4-Chloro-3-[(2-methoxy-ethylamino)-methyl]-N-(4-methoxy-7-morpholin-4-yl-benzothiazol-2-yl)-benzamide], for which the Ki is 2.51 nM. Regarding `COc1ccc(N2CCOCC2)c2sc(NC(=O)c3ccc(Cl)c(CN4CCCC4)c3)nc12` [Example 283, 4-Chloro-N-(4-methoxy-7-morpholin-4-yl-benzothiazol-2-yl)-3-pyrrolidin-1-ylmethyl-benzamide], the Ki is 1 nM. To `COCCNCc1cccc(C(=O)Nc2nc3c(OC)ccc(N4CCOCC4)c3s2)c1` [Example 286] belongs 1.58 nM; to `COCCN(C)Cc1cccc(C(=O)Nc2nc3c(OC)ccc(N4CCOCC4)c3s2)c1` [Example 287, 3-{[(2-Methoxy-ethyl)-methyl-amino]-methyl}-N-(4-methoxy-7-morpholin-4-yl-benzothiazol-2-yl)-benzamide], 3.16 nM; to `COc1ccc(N2CCOCC2)c2sc(NC(=O)c3cccc(CN4CCCC4)c3)nc12` [Example 289, N-(4-Methoxy-7-morpholin-4-yl-benzothiazol-2-yl)-3-pyrrolidin-1-ylmethyl-benzamide], 1.26 nM. To `CCOCCNCc1ccc(C(=O)Nc2nc3c(OC)ccc(N4CCOCC4)c3s2)cc1` [Example 290, 4-[(2-Ethoxy-ethylamino)-methyl]-N-(4-methoxy-7-morpholin-4-yl-benzothiazol-2-yl)-benzamide] belongs 2.51 nM; to `CNCc1ccc(C(=O)Nc2nc3c(OC)ccc(N4CCOCC4)c3s2)cc1` [Example 292, N-(4-Methoxy-7-morpholin-4-yl-benzothiazol-2-yl)-4-methylaminomethyl-benzamide], 1.58 nM; to `COc1ccc(N2CCOCC2)c2sc(NC(=O)c3ccc(CSCCN(C)C)cc3)nc12` [Example 298, 4-(2-Dimethylamino-ethylsulfanylmethyl)-N-(4-methoxy-7-morpholin-4-yl-benzothiazol-2-yl)-benzamide], 2 nM. As to `CCOCCN(CC)Cc1ccc(C(=O)Nc2nc3c(OC)ccc(N4CCOCC4)c3s2)cc1` [Example 301, 4-{[(2-Ethoxy-ethyl)-ethyl-amino]-methyl}-N-(4-methoxy-7-morpholin-4-yl-benzothiazol-2-yl)-benzamide], the Ki was 3.16 nM.

In the case of `CCOCCN(C)Cc1ccc(C(=O)Nc2nc3c(OC)ccc(N4CCOCC4)c3s2)cc1` [Example 304, 4-{[(2-Ethoxy-ethyl)-methyl-amino]-methyl}-N-(4-methoxy-7-morpholin-4-yl-benzothiazol-2-yl)-benzamide], the Ki was 3.16 nM.
